This is an account of results in ChEMBL document CHEMBL1649244, “Horizontal transfer of tetracycline resistance among Chlamydia spp. in vitro” (2009).

Holding throughout (type): functional
The test system of experiment [1] is Chlamydia trachomatis. The experiment can be described thus: Antimicrobial activity against Chlamydia trachomatis L2/oflR harboring ompA gene.
Experiment [2] deals with Chlamydia suis. The experiment can be described thus: Antimicrobial activity against Chlamydia suis S45/rifR harboring rpoB gene.
The subject of experiment [3] is Chlamydia trachomatis. The experiment can be described thus: Antimicrobial activity against Chlamydia trachomatis J/6276/rifR harboring ompA and rpoB genes.
Experiment [4] concerns Chlamydia muridarum. The experiment can be described thus: Antimicrobial activity against Chlamydia muridarum MoPn/oflR harboring ompA gene.
Experiment [5] concerns Chlamydia trachomatis. The experiment can be described thus: Antimicrobial activity against Chlamydia trachomatis L2/oflR-rifR1 harboring ompA and rpoB genes.
Experiment [6] relates to Chlamydia suis. The experiment can be described thus: Antimicrobial activity against Chlamydia suis R19/tetR harboring tet(C) allele.
For experiment [7], the system named is Chlamydia muridarum. The experiment can be described thus: Antimicrobial activity against Chlamydia muridarum MoPn/rifRoflR harboring ompA and rpoB genes.
For experiment [8], the system named is Chlamydia trachomatis. The experiment can be described thus: Antimicrobial activity against Chlamydia trachomatis L2/tetR13 harboring tet(C) allele.
The test system of experiment [9] is Chlamydia trachomatis. The experiment can be described thus: Antimicrobial activity against Chlamydia trachomatis J/6276/tetR harboring tet(C) allele.
Experiment [10] concerns Chlamydia trachomatis. The experiment can be described thus: Antimicrobial activity against Chlamydia trachomatis F/70/rifR harboring rpoB gene.
Experiment [11] deals with Chlamydophila caviae. The experiment can be described thus: Antimicrobial activity against Chlamydophila caviae GPIC/rifR harboring rpoB gene. As to conditions: Chlamydia caviae.
The subject of experiment [12] is Chlamydia trachomatis. The experiment can be described thus: Antimicrobial activity against Chlamydia trachomatis L2/oflR-rifR2 harboring […] and rpoB genes.
Experiment [13] has as its system Chlamydia trachomatis. The experiment can be described thus: Antimicrobial activity against Chlamydia trachomatis J/6276/oflR-rifR1 harboring ompA and rpoB genes.
In experiment [14] the test system is Chlamydia muridarum. The experiment can be described thus: Antimicrobial activity against Chlamydia muridarum MoPn/oflR-rifR harboring ompA and rpoB genes.
For experiment [15], the system named is Chlamydia trachomatis. The experiment can be described thus: Antimicrobial activity against Chlamydia trachomatis J/6276/oflR-rifR2 harboring ompA and rpoB genes.
For experiment [16], the system named is Chlamydia trachomatis. The experiment can be described thus: Antimicrobial activity against Chlamydia trachomatis L2/tetR1 harboring tet(C) allele.
In experiment [17] the test system is Chlamydia muridarum. The experiment can be described thus: Antimicrobial activity against Chlamydia muridarum MoPn/tetR14 harboring tet(C) allele.
Experiment [18] has as its system Chlamydia muridarum. The experiment can be described thus: Antimicrobial activity against Chlamydia muridarum MoPn/tetR1 harboring tet(C) allele.
For experiment [19], the system named is Chlamydia trachomatis. The experiment can be described thus: Antimicrobial activity against Chlamydia trachomatis F/70/rifR-tetR harboring rpoB gene and tet(C) allele.

Molecules are shown by their SMILES. Converted amounts (≈) assume the structure as drawn.

The term MIC denotes the lowest concentration that inhibits growth of the organism. The low end stands for inhibition by little substance, the high end for a need for much substance. With `CN(C)[C@@H]1C(O)=C(C(N)=O)C(=O)[C@@]2(O)C(O)=C3C(=O)c4c(O)cccc4[C@@](C)(O)[C@H]3C[C@@H]12` [TETRACYCLINE], the minimum inhibitory concentration (MIC) in [1] is 0.032 µg/mL (≈ 0.072 µM); in experiment [2], 0.032 µg/mL (≈ 0.072 µM); in [3], 0.032 µg/mL (≈ 0.072 µM); in experiment [4], 0.032 µg/mL (≈ 0.072 µM); in experiment [5] it was 0.008 µg/mL (≈ 0.018 µM); in experiment [6], 8 µg/mL (≈ 18 µM). Further, the MIC was 0.008 µg/mL (≈ 0.018 µM) in experiment [7]; 8 µg/mL (≈ 18 µM) in experiment [8]; 8 µg/mL (≈ 18 µM) in experiment [9]; 0.032 µg/mL (≈ 0.072 µM) in [10]; 0.032 µg/mL (≈ 0.072 µM) in experiment [11]; 0.032 µg/mL (≈ 0.072 µM) in [12]. Besides, the MIC was found to be 0.032 µg/mL (≈ 0.072 µM) in experiment [13]; 0.032 µg/mL (≈ 0.072 µM) in experiment [14]; 0.032 µg/mL (≈ 0.072 µM) in [15]; 8 µg/mL (≈ 18 µM) in experiment [16]; 8 µg/mL (≈ 18 µM) in experiment [17]; 8 µg/mL (≈ 18 µM) in experiment [18]. The lowest concentration to inhibit growth in experiment [19] (MIC) was 8 µg/mL (≈ 18 µM).

Turning to `CC1COc2c(N3CCN(C)CC3)c(F)cc3c(=O)c(C(=O)O)cn1c23` (configuration not stated) [OFLOXACIN], the MIC in experiment [1] came out at 16 µg/mL (≈ 44.3 µM); in experiment [2], 0.5 µg/mL (≈ 1.38 µM); in experiment [3] it was 0.5 µg/mL (≈ 1.38 µM); in [4], 32 µg/mL (≈ 88.6 µM); in experiment [5], 16 µg/mL (≈ 44.3 µM); in experiment [6], 0.5 µg/mL (≈ 1.38 µM). Also, the MIC was 32 µg/mL (≈ 88.6 µM) in [7]; 16 µg/mL (≈ 44.3 µM) in experiment [8]; 0.5 µg/mL (≈ 1.38 µM) in [9]; 0.5 µg/mL (≈ 1.38 µM) in experiment [10]; 0.5 µg/mL (≈ 1.38 µM) in experiment [11]; 16 µg/mL (≈ 44.3 µM) in experiment [12]. The MIC was found to be 16 µg/mL (≈ 44.3 µM) in [13]; 32 µg/mL (≈ 88.6 µM) in experiment [14]; 32 µg/mL (≈ 88.6 µM) in experiment [15]; 16 µg/mL (≈ 44.3 µM) in experiment [16]; 32 µg/mL (≈ 88.6 µM) in experiment [17]; 32 µg/mL (≈ 88.6 µM) in experiment [18]. Moreover, in experiment [19], it took 0.5 µg/mL (≈ 1.38 µM) to inhibit growth (MIC).

For `CO[C@H]1/C=C/O[C@@]2(C)Oc3c(C)c(O)c4c(O)c(c(/C=N/N5CCN(C)CC5)c(O)c4c3C2=O)NC(=O)/C(C)=C\C=C\[C@H](C)[C@H](O)[C@@H](C)[C@@H](O)[C@@H](C)[C@H](OC(C)=O)[C@@H]1C` [RIFAMPIN], the MIC in experiment [1] amounted to 0.004 µg/mL (≈ 0.00486 µM); in experiment [2], 0.25 µg/mL (≈ 0.304 µM); in experiment [3], 0.004 µg/mL (≈ 0.00486 µM); in [4], 0.008 µg/mL (≈ 0.00972 µM); in experiment [5], 128 µg/mL (≈ 156 µM); in [6] it was 0.004 µg/mL (≈ 0.00486 µM). Also, the MIC in experiment [7] was 128 µg/mL (≈ 156 µM); in experiment [8] it was 0.004 µg/mL (≈ 0.00486 µM); in [9] it was 8 µg/mL (≈ 9.72 µM); in experiment [10], 32 µg/mL (≈ 38.9 µM); in [11], 16 µg/mL (≈ 19.4 µM); in experiment [12], 0.25 µg/mL (≈ 0.304 µM). The MIC in experiment [13] came to 8 µg/mL (≈ 9.72 µM); in [14] it was 0.25 µg/mL (≈ 0.304 µM); in experiment [15], 8 µg/mL (≈ 9.72 µM); in experiment [16] it was 128 µg/mL (≈ 156 µM); in experiment [17], 128 µg/mL (≈ 156 µM); in [18], 0.008 µg/mL (≈ 0.00972 µM). This compound yielded an MIC in experiment [19] of 32 µg/mL (≈ 38.9 µM).
